Experimental data published in patent publication US9120791B2, “Indolizine compounds, a process for their preparation and pharmaceutical compositions containing them” (LES LABORATOIRES SERVIER, priority 2012, dated 2015).
Structures can show the parent of a compound that is named as a salt.

Key:
Bcl-2 protein = Bcl-2 protein (Homo sapiens (Human), UniProt P10415); assay: Inhibition of Bcl-2 by the fluorescence polarisation technique; type: binding; conditions: fluorescence polarisation test; concentration that inhibits fluorescence polarisation by 50%; read-out: IC50 (nM) Bcl-2 FP
Sequence of Bcl-2 protein (P10415 whole entry): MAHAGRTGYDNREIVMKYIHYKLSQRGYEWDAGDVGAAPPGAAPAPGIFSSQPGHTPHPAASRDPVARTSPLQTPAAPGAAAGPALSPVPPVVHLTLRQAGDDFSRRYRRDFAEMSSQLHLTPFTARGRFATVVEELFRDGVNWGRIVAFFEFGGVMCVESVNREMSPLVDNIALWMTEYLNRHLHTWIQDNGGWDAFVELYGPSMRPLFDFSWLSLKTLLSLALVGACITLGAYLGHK
Protocol: The fluorescence polarisation tests were carried out on microplates (384 wells). […] After incubation for 2 hours, the fluorescence polarisation is measured.

[1] = system: RS4;11 leukaemia tumour line; assay: In vitro cytotoxicity (Microculture Tetrazolium Assay, 48 hours); type: cell-based; conditions: Homo sapiens, RS4;11 cells, 48 hours exposure, MTT, concentration that inhibits cell viability by 50%, read-out: IC50 (nM) MTT RS4
Protocol: The cytotoxicity studies were carried out on the RS4;11 leukaemia tumour line.
The cells are distributed onto microplates and exposed to the test compounds for 48 hours.

Structure (SMILES)	IC50 (Bcl-2 protein) [nM]	IC50 [1] [nM]
COc1ccc(N(C(=O)c2cc(-c3cc(Cl)ccc3C(=O)N3Cc4ccccc4C[C@H]3CN3CCOCC3)n3c2CCCC3)c2ccc(O)cc2)cc1C(F)(F)F [Example 53, 3-{5-Chloro-2-[((3S)-3-(4-morpholinylmethyl)-3,4-dihydro-2(1H)-isoquinolinyl)carbonyl]phenyl}-N-(4-hydroxyphenyl)-N-[4-methoxy-3-(trifluoro-methyl)phenyl]-5,6,7,8-tetrahydro-1-indolizine carboxamide hydrochloride]	180	138
O=C(c1cc(-c2cc(Cl)ccc2C(=O)N2Cc3ccccc3C[C@H]2CN2CCOCC2)n2c1CCCC2)N(c1ccc(O)cc1)c1cc(F)cc(F)c1 [Example 125, 3-(5-Chloro-2-{[(3S)-3-(morpholin-4-ylmethyl)-3,4-dihydroisoquinolin-2(1H)-yl]carbonyl}phenyl)-N-(3,5-difluorophenyl)-N-(4-hydroxyphenyl)-5,6,7,8-tetrahydroindolizine-1-carboxamide hydrochloride]	38	81.8
N#Cc1ccccc1N(C(=O)c1cc(-c2cc(Cl)ccc2C(=O)N2Cc3ccccc3C[C@H]2CN2CCOCC2)n2c1CCCC2)c1ccc(O)cc1 [Example 134, 3-(5-Chloro-2-{[(3S)-3-(morpholin-4-ylmethyl)-3,4-dihydroisoquinolin-2(1H)-yl]carbonyl}phenyl)-N-(2-cyanophenyl)-N-(4-hydroxyphenyl)-5,6,7,8-tetrahydroindolizine-1-carboxamide hydrochloride]	37	305
Cn1ccc2cc(N(C(=O)c3cc(-c4cc5c(cc4C(=O)N4Cc6ccccc6C[C@H]4CN4CCOCC4)OCO5)n4c3CCC4)c3ccc(O)cc3)ccc21 [Example 96, N-(4-Hydroxyphenyl)-N-(1-methyl-1H-indol-5-yl)-5-(6-{[(3S)-3-(morpholin-4-ylmethyl)-3,4-dihydroisoquinolin-2(1H)-yl]carbonyl}-1,3-benzodioxol-5-yl)-2,3-dihydro-1H-pyrrolizine-7-carboxamide hydrochloride]	11	58.8
O=C(c1cc(-c2cc(Cl)ccc2C(=O)N2Cc3ccccc3C[C@H]2CN2CCOCC2)n2c1CCCC2)N(c1ccc(O)cc1)c1ccc(F)cc1F [Example 117, 3-(5-Chloro-2-{[(3S)-3-(morpholin-4-ylmethyl)-3,4-dihydroisoquinolin-2(1H)-yl]carbonyl}phenyl)-N-(2,4-difluorophenyl)-N-(4-hydroxyphenyl)-5,6,7,8-tetrahydroindolizine-1-carboxamide hydrochloride]	15	194
CSc1ccc(N(C(=O)c2cc(-c3cc(Cl)ccc3C(=O)N3Cc4ccccc4C[C@H]3CN3CCOCC3)n3c2CCCC3)c2ccc(O)cc2)cc1C(F)(F)F [Example 54, 3-{5-Chloro-2-[((3S)-3-(4-morpholinylmethyl)-3,4-dihydro-2(1H)-isoquinolinyl)carbonyl]phenyl}-N-(4-hydroxyphenyl)-N-[4-(methylsulphanyl)-3-(trifluoromethyl)phenyl]-5,6,7,8-tetrahydro-1-indolizine carboxamide hydrochloride]	180	106

Now from value to compound, other results behind:

IC50 (Bcl-2 protein) [nM]	Structure (SMILES)	IC50 [1] [nM]
17	Cn1ccc2cc(N(C(=O)c3cc(-c4cc(F)ccc4C(=O)N4Cc5ccccc5C[C@H]4CN4CCOCC4)n4c3CCCC4)c3ccc(O)cc3)ccc21 [Example 24, 3-{5-Fluoro-2-[((3S)-3-(4-morpholinylmethyl)-3,4-dihydro-2(1H)-isoquinolinyl)carbonyl]phenyl}-N-(4-hydroxyphenyl)-N-(1-methyl-1H-indol-5-yl)-5,6,7,8-tetrahydro-1-indolizine carboxamide hydrochloride]	29.8
26	CN1CCCc2cc(N(C(=O)c3cc(-c4cc5c(cc4C(=O)N4Cc6ccccc6C[C@H]4CN4CCOCC4)OCCO5)n4ccccc34)c3ccc(O)cc3)ccc21 [Example 69, N-(4-Hydroxyphenyl)-N-(1-methyl-1,2,3,4-tetrahydro-6-quinolinyl)-3-{7-[((3S)-3-(4-morpholinylmethyl)-3,4-dihydro-2(1H)-isoquinolinyl)carbonyl]-2,3-dihydro-1,4-benzodioxin-6-yl}-1-indolizine carboxamide hydrochloride]	16.7
19	Cn1ccc2cc(N(C(=O)c3cc(-c4cc5c(cc4C(=O)N4Cc6ccccc6C[C@H]4CN4CCOCC4)OCCO5)n4ccccc34)c3ccc(O)cc3)ccc21 [Example 70, N-(4-Hydroxyphenyl)-N-(1-methyl-1H-indol-5-yl)-3-{7-[((3S)-3-(4-morpholinylmethyl)-3,4-dihydro-2(1H)-isoquinolinyl)carbonyl]-2,3-dihydro-1,4-benzodioxin-6-yl}-1-indolizine carboxamide hydrochloride]	14
31	O=C(c1cc(-c2cc(Cl)ccc2C(=O)N2Cc3ccccc3C[C@H]2CN2CCOCC2)n2c1COCC2)N(c1ccc(O)cc1)c1ccc2c(c1)CCN2 [Example 79, 6-{5-Chloro-2-[((3S)-3-(4-morpholinylmethyl)-3,4-dihydro-2(1H)-isoquinolinyl)carbonyl]phenyl}-N-(2,3-dihydro-1H-indol-5-yl)-N-(4-hydroxyphenyl)-3,4-dihydro-1H-pyrrolo[2,1-c][1,4]oxazine-8-carboxamide bis(hydrochloride)]	67.5
19	CCn1ccc2cc(N(C(=O)c3cc(-c4cc5c(cc4C(=O)N4Cc6ccccc6C[C@H]4CN4CCOCC4)OCO5)n4ccccc34)c3ccc(O)cc3)ccc21 [Example 60, N-(1-Ethyl-1H-indol-5-yl)-N-(4-hydroxyphenyl)-3-{6-[((3S)-3-(4-morpholinylmethyl)-3,4-dihydro-2(1H)-isoquinolinyl)carbonyl]-1,3-benzodioxol-5-yl}-1-indolizine carboxamide hydrochloride]	11.7
10	O=C(c1cc(-c2cc(Cl)ccc2C(=O)N2Cc3ccccc3C[C@H]2CN2CCOCC2)n2c1CCCC2)N(c1ccc(O)cc1)c1cccc(F)c1 [Example 116, 3-(5-Chloro-2-{[(3S)-3-(morpholin-4-ylmethyl)-3,4-dihydroisoquinolin-2(1H)-yl]carbonyl}phenyl)-N-(3-fluorophenyl)-N-(4-hydroxyphenyl)-5,6,7,8-tetrahydroindolizine-1-carboxamide hydrochloride]	43.6
10	COCCN1CCN(C[C@@H]2Cc3ccccc3CN2C(=O)c2cc3c(cc2-c2cc(C(=O)N(c4ccccc4)c4ccc(O)cc4)c4n2CCCC4)OCO3)CC1 [Example 105, N-(4-Hydroxyphenyl)-3-(6-{[(3S)-3-{[4-(2-methoxyethyl)piperazin-1-yl]methyl}-3,4-dihydroisoquinolin-2(1H)-yl]carbonyl}-1,3-benzodioxol-5-yl)-N-phenyl-5,6,7,8-tetrahydroindolizine-1-carboxamide bis(hydrochloride)]	28.9
26	Cc1cccc(N(C(=O)c2cc(-c3cc(Cl)ccc3C(=O)N3Cc4ccccc4C[C@H]3CN3CCOCC3)n3c2CCCC3)c2ccc(O)cc2)c1 [Example 126, 3-(5-Chloro-2-{[(3S)-3-(morpholin-4-ylmethyl)-3,4-dihydroisoquinolin-2(1H)-yl]carbonyl}phenyl)-N-(4-hydroxyphenyl)-N-(3-methylphenyl)-5,6,7,8-tetrahydroindolizine-1-carboxamide hydrochloride]	115
